From patent US9795585B2, “Methods of using L-butylphthalide for the prevention and treatment of cerebral ischemia disease” (priority 2004, dated 2017)

How the values were obtained:
[1] = tested on: cerebral apoplexy in spontaneous hypertension rats; assay: Cerebral apoplexy in salt-loaded spontaneous hypertensive rats; assay type: in vivo
Procedure: Experimental Animals: spontaneous hypertensive rats of 6 weeks old. Experimental Methods: Spontaneous hypertensive rats of 6 weeks old were divided into 8 groups with 10 rats per group. 0.8 to 0.9 g per day of common salt was administered starting from week 6. […] The scores of neurological deficit and the time of death were recorded.

normal rats = assay type: in vivo, Male wistar rats; details: 15 and 30 mg/kg oral; for cerebral blood flow rate in normal rats: 30 minutes after administration
Procedure: Experimental Animals: Male wistar rats.
Experimental Equipments: SXP operating microscope, 62TZ-V model high frequency electrotome, solid positioner, Diamond Electro-Tech chemical microsensor 1231, two channel physiological parameter recorder.
Experimental Methods: • (1) dl-, d-, and l-NBP (15 and 30 mg/kg) and the vehicle were orally administered to the normal rats, and the changes of cerebral blood flow at different time after the administration were measured. • (2) ligation of cerebral artery was conducted on rats according to the method of Tamura. Oral administration was performed at 10 min after the operation. The rats were divided into 9 groups, which were normal group, pseudo-operation group, vehicle control group, and groups of dl-, d-, and l-NBP (15 and 30 mg/kg).

[2] = tested on: permanent cerebral ischemic rats; assay: Behavioral disorder and cerebral infarct area in permanent cerebral ischemic rats (FeCl3 on middle cerebral artery); assay type: in vivo, Wistar rats; details: for reduction of cerebral infarct area / neurological deficit scores (effect in words) / ED40 (cerebral infarct area): vs model control group; for decrease of neurological deficit scores / ED30 (neurological deficit scores): i.v., 24 hours after administration; for neurological deficit scores (effect in words): intravenous injection
Procedure: Experimental Animal: The same as Example 1. Experimental Equipments: COOLPIX955 digital camera, 722 grating spectroscope, XHF-1 high-speed disperser, YKH-II liquid high-speed mixer, WZ-50C2 micro infusion pump. Experimental Methods: Wistar rats were anesthetized by intraperitoneally injecting 12% chloral hydrate in 350 mg/kg, and fixed in lateral decubitus position. The skin at the midpoint on the line from exterior auditory canal to canthus was cut. The muscle was separated layer by layer to expose zygomatic arch and the squamous part of temporal bone. The zygomatic arch was scissored and then placed under an operating microscope. A window of 2 mm diameter was drilled by using a dentistry drill at a position of 2 mm under the anterior joint between zygomatic arch and the squamous part of temporal bone, so as to expose the middle cerebral artery. A little piece of filter paper was applied onto the middle artery, and 10 μl of 50% FeCl3 aqueous solution was dripped onto the filter paper. The filter paper was removed after 30 min, and washed with physiological brine. Two to three drops of penicillin (1.6×10^5 U/mL) were added so as to prevent infection of the cut. Then the cut was sutured layer by layer.

[3] = 25 and 50 mg/kg/d oral until 3 weeks after apoplexy, dose-dependent

| Structure (SMILES) | preventive and therapeutic effect on cerebral apoplexy (overall) ([1]; 25 and 50 mg/kg/d oral) | cerebral blood flow rate in normal rats (normal rats) | cerebral infarct area (effect in words) ([2]; 2.5 mg/kg, tendency of reducing) | reduction of cerebral infarct area ([2]; first of three doses) | decrease of neurological deficit scores ([2]; high dose) | ED30 (neurological deficit scores) [2] | neurological deficit scores (effect in words) [2] | decrease of neurological deficit scores ([2]; low dose) | decrease of neurological deficit scores ([2]; moderate dose) | reduction of cerebral infarct area ([2]; second of three doses) | reduction of cerebral infarct area ([2]; third of three doses) | ED40 (cerebral infarct area) [2] | time of the occurrence of cerebral apoplexy ([1]; 25 and 50 mg/kg/d oral from week 8, vs vehicle control) | neurological deficit after cerebral apoplexy [1, 3] | viability after the occurrence of cerebral apoplexy [1, 3] | time after administration till which cerebral blood flow rate was maintained at a relative high level (normal rats; normal rats) | cerebral infarct area (effect in words) ([2]; 5 and 10 mg/kg, effect increased with dose) | effect on cerebral infarct area relative to d-NBP ([2]; as calculated by converting into ED50) | cerebral infarct area (effect in words) ([2]; dose not given) |
| --- | --- | --- | --- | --- | --- | --- | --- | --- | --- | --- | --- | --- | --- | --- | --- | --- | --- | --- | --- |
| CCCCC1OC(=O)c2ccccc21 (racemic) [dl-NBP, butylphthalide] | merely had such effect at relatively high doses | no such effects | not significant | 29.2% | 37.5% | 7.2 mg/kg | improvement | 15.6% | 21.9% | 35.2% | 44.4% | 7.1 mg/kg | – | – | – | – | – | – | – |
| CCCC[C@@H]1OC(=O)c2ccccc21 [l-NBP, L-butylphthalide] | – | significantly increased | – | 38.4% | 35.9% | 6.2 mg/kg | improvement | 17.2% | 29.7% | 41.9% | 50.7% | 3.3 mg/kg | significantly delay | reduce | significantly increase | 50 min | significantly reduce | about 3.1 times | significantly reduce |
